Laboratory results as given in ChEMBL document CHEMBL5634172, “Peniditerpenoids A and B: Oxidized Indole Diterpenoids with Osteoclast Differentiation Inhibitory Activity from a Mangrove-Sediment-Derived Penicillium sp” (J Nat Prod, 2024).
The source made the active and inactive calls. No cut-off for these calls is given here.

Tests used:
RAW264.7 [1] = assay: Antiinflammatory activity against mouse RAW264.7 cells stably transfected with luciferase reporter gene assessed as inhibition of LPS-induced NF-kB activation preincubated for 30 min followed by LPS stimulation for 8 hrs by luciferase based assay; type: functional, cell-based
BMDM = assay: Anti-osteoclastogenesis activity in RANKL/MCSF-induced mouse BMDM cells assessed as inhibition of osteoclast differentiation at 5 to 20 uM incubated for 3 days by TRAP-staining based microscopic analysis; type: functional, cell-based; details: dose 5-20 µM, time 3.0 day
RAW264.7 [2] = assay: Cytotoxicity against mouse RAW264.7 cells assessed as reduction in cell viability at 5 to 20 uM incubated for 72 hrs by MTT assay; type: toxicity, cell-based; details: raw264.7, 72 h, dose 5-20 µM
[3] = target: T1, Mitogen-activated protein kinase kinase kinase 7 (Mus musculus) (UniProt Q62073); assay: Inhibition of TAK1 activation in mouse RAW264.7 cells at 5 to 20 uM preincubated for 4 hrs followed by RANKL addition and measured after 30 mins by Western blot analysis; type: cell-based; details: dose 5-20 µM, time 4.5 hrs
T1 sequence (whole entry): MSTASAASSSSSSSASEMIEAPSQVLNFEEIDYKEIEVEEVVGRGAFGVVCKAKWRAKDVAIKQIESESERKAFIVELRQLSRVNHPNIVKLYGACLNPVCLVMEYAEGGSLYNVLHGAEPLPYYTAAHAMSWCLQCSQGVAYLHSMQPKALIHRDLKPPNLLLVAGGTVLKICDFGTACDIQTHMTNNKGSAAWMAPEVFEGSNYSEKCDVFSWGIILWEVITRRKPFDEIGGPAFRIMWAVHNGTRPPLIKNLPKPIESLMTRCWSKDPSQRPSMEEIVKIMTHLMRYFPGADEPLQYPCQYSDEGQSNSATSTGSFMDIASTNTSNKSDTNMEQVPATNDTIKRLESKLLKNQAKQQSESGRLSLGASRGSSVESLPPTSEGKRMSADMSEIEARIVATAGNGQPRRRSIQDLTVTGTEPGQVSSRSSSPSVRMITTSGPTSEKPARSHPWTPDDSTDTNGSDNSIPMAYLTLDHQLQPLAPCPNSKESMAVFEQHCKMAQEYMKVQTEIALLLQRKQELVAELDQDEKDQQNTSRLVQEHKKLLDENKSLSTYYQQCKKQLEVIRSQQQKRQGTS

[4] = target: T2, NF-kappa-B inhibitor alpha (Mus musculus) (UniProt Q9Z1E3); assay: Inhibition of IkappaBalpha phosphorylation in mouse RAW264.7 cells at 5 to 20 uM preincubated for 4 hrs followed by RANKL addition and measured after 30 mins by Western blot analysis; type: cell-based; details: dose 5-20 µM
T2 sequence (whole entry): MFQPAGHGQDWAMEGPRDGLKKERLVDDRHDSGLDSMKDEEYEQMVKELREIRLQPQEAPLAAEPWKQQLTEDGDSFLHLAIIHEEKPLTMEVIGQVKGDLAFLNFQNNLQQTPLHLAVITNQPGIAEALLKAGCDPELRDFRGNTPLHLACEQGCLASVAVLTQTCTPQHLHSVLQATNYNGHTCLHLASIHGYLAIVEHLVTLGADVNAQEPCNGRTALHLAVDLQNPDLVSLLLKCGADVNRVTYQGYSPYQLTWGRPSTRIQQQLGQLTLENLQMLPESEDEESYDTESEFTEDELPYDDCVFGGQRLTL

RAW264.7 [5] = assay: Upregulation of cytoplasmic p65 level in mouse RAW264.7 cells at 5 to 20 uM preincubated for 4 hrs followed by RANKL addition and measured after 30 mins by Western blot analysis; type: functional, cell-based; details: dose 5-20 µM, time 4.5 hrs
RAW264.7 [6] = assay: Inhibition of p65 translocation in mouse RAW264.7 cells at 5 to 20 uM preincubated for 4 hrs followed by RANKL addition and measured after 30 mins by Western blot analysis; type: cell-based; details: dose 5-20 µM, time 4.5 hrs
RAW264.7 [7] = assay: Inhibition of p65 translocation in mouse RAW264.7 cells at 20 uM preincubated with RANKL for 24 hrs followed by compound addition and measured after 4 hrs by immunofluorescence analysis; type: cell-based
RAW264.7 [8] = assay: Downregulation of nuclear NFATc1 expression in mouse RAW264.7 cells at 20 uM preincubated for 4 hrs followed by RANKL addition and measured after 24 hrs by Western blot analysis; type: functional, cell-based; details: time 28.0 hrs

| IC50 (RAW264.7 [1]) [µM] | inhibition [3] | inhibition [4] | Compound | Activity (BMDM) | Activity (RAW264.7 [2]) | Activity (RAW264.7 [5]) | inhibition (RAW264.7 [6]) | inhibition (RAW264.7 [7]) | Activity (RAW264.7 [8]) |
| --- | --- | --- | --- | --- | --- | --- | --- | --- | --- |
| 5 | – | – | Cc1ccc(S(=O)(=O)/C=C/C#N)cc1 | – | – | – | – | – | – |
| 11 | Active | Active | CC1(C)O[C@@]23CC[C@@]4(C)[C@@](O)(CC[C@@H](CC(=O)c5ccccc5N)[C@]4(C)C(=O)O)C2=CC(=O)[C@@H]1O3 | Active | Non-Toxic | Active | Active | Active | Active |
